Source: paper PMC7717600, “Novel [(N-alkyl-3-indolylmethylene)hydrazono]oxindoles arrest cell cycle and induce cell apoptosis by inhibiting CDK2 and Bcl-2: synthesis, biological evaluation and in silico studies” (Journal of Enzyme Inhibition and Medicinal Chemistry, 2020)

How the values were obtained:
A-549 = test: SRB anti-proliferative assay; type: cell-based; conditions: Homo sapiens, A549; A-549, SRB, mean ± SE of 3
Description: Staurosporine, a clinically used antitumor drug, was co-assayed as a reference agent for the experiment.
(§1) Examination of the cytotoxic activity for the target conjugates was carried out in accordance with the SRB colorimetric assay protocol, as described previously.
(§2) In vitro anti-proliferative activity assay
(§3) Cells at a concentration of 0.50 x
(§4) Sulfo-Rhodamine-B stain (SRB) assay.
(§5) cell to the wall of the plate.
(§6) wells were prepared for each individual dose).
(§7) Unbound dye was removed by four

MDA-MB-468 = conditions: MDA-MB-468, 10 μM
IGROV1 = conditions: IGROV1, 10 μM
OVCAR-5 = conditions: OVCAR-5, 10 μM
RXF 393 = conditions: RXF 393, 10 μM
SW-620 = conditions: SW-620, 10 μM
MDA-MB-231/ATCC = conditions: MDA-MB-231, 10 μM
SK-MEL-28 = conditions: SK-MEL-28, 10 μM
HCT-116 [1] = conditions: HCT-116, 10 μM
UO-31 = conditions: UO-31, 10 μM
TK-10 = conditions: TK-10, 10 μM
OVCAR-8 = conditions: OVCAR-8, 10 μM
PC-3 = test: NCI SRB screening; type: cell-based, human; conditions: PC-3, 10 μM
UACC-257 = conditions: UACC-257, 10 μM
ACHN = conditions: 10 μM
HCT-15 = conditions: HCT-15, 10 μM
SK-MEL-5 = conditions: SK-MEL-5, 10 μM
A549/ATCC = conditions: 10 μM
MDA-MB-231 = test: SRB anti-proliferative assay; type: cell-based; conditions: Homo sapiens; MDA-MB-231, SRB, mean ± SE of 3
Description: (§8) All the newly prepared target conjugates (7, 8a–c, 9 and 10a–e) were investigated for the prospective growth inhibitory actions against three different cancer cell lines viz.; A-549, MDA-MB-231, and HCT-116, using the sulforhodamine B colorimetric (SRB) assay. Staurosporine, a clinically used antitumor drug, was co-assayed as a reference agent for the experiment.
as §1, §2, §3, §4, §5, §6, §7

HCT-116 [2] = test: SRB anti-proliferative assay; type: cell-based; conditions: Homo sapiens; HCT-116, SRB, mean ± SE of 3
Description: as §8, §1, §2, §3, §4, §5, §6, §7

LOX IMVI = test: NCI SRB screening; type: cell-based, human; conditions: 10 μM
SF-268 = conditions: SF-268, 10 μM
K-562 = conditions: K-562, 10 μM
CCRF-CEM = conditions: 10 μM
MALME-3M = conditions: 10 μM
HS 578T = conditions: 10 μM
EKVX = conditions: 10 μM
NCI-H226 = conditions: NCI-H226, 10 μM
BT-549 = conditions: BT-549, 10 μM
NCI-H23 = conditions: NCI-H23, 10 μM
KM12 = conditions: KM12, 10 μM
NCI/ADR-RES = conditions: 10 μM
NCI-H322M = test: NCI SRB screening; conditions: 10 μM
SNB-75 = conditions: SNB-75, 10 μM
OVCAR-3 = conditions: OVCAR-3, 10 μM
MOLT-4 = conditions: MOLT-4, 10 μM
SF-539 = conditions: SF-539, 10 μM
NCI-H522 = conditions: NCI-H522, 10 μM
HOP-92 = conditions: HOP-92, 10 μM
SN12C = conditions: 10 μM
HL-60(TB) = conditions: HL-60(TB), 10 μM
SK-OV-3 = conditions: SK-OV-3, 10 μM
NCI-H460 = test: NCI SRB screening; type: cell-based, human; conditions: NCI-H460, 10 μM

CC(C)n1cc(C=NN=C2C(=O)Nc3ccccc32)c2ccccc21 [Compound 9]
18%: GI % (HL-60(TB))
16%: GI % (NCI-H226)
31.7 ± 2.27 µM: IC50 (A-549)
28.2 ± 1.73 µM: IC50 (HCT-116 [2])
14%: GI % (UO-31) | GI % (HOP-92)
10.4 ± 0.8 µM: IC50 (MDA-MB-231)
11%: GI % (MDA-MB-231/ATCC)
10%: GI % (NCI-H522)
– (Only GI % higher than 10% are shown): GI % (MDA-MB-468) | GI % (IGROV1) | GI % (OVCAR-5) | GI % (RXF 393) | GI % (SW-620) | GI % (SK-MEL-28) | GI % (HCT-116 [1]) | GI % (TK-10) | GI % (OVCAR-8) | GI % (PC-3) | GI % (UACC-257) | GI % (ACHN) | GI % (HCT-15) | GI % (SK-MEL-5) | GI % (A549/ATCC) | GI % (LOX IMVI) | GI % (SF-268) | GI % (K-562) | GI % (CCRF-CEM) | GI % (MALME-3M) | GI % (HS 578T) | GI % (BT-549) | GI % (NCI-H23) | GI % (KM12) | GI % (NCI/ADR-RES) | GI % (NCI-H322M) | GI % (OVCAR-3) | GI % (SF-539) | GI % (SN12C) | GI % (SK-OV-3) | GI % (NCI-H460)
13%: GI % (MOLT-4)
33%: GI % (SNB-75)
38%: GI % (EKVX)

CCCn1cc(C=NN=C2C(=O)Nc3ccc([N+](=O)[O-])cc32)c2ccccc21 [Compound 8c]
6.4 ± 0.5 µM: IC50 (HCT-116 [2])
12.3 ± 1.05 µM: IC50 (A-549)
18%: GI % (K-562)
29%: GI % (OVCAR-8)
11%: GI % (KM12) | GI % (HOP-92)
10%: GI % (SF-539) | GI % (HL-60(TB))
15.6 ± 0.98 µM: IC50 (MDA-MB-231)
19%: GI % (NCI-H460)
17%: GI % (MDA-MB-468)
20%: GI % (HCT-116 [1])
13%: GI % (A549/ATCC)
– (Only GI % higher than 10% are shown): GI % (IGROV1) | GI % (OVCAR-5) | GI % (RXF 393) | GI % (SW-620) | GI % (MDA-MB-231/ATCC) | GI % (SK-MEL-28) | GI % (UO-31) | GI % (TK-10) | GI % (PC-3) | GI % (UACC-257) | GI % (ACHN) | GI % (HCT-15) | GI % (SK-MEL-5) | GI % (LOX IMVI) | GI % (SF-268) | GI % (CCRF-CEM) | GI % (MALME-3M) | GI % (HS 578T) | GI % (EKVX) | GI % (NCI-H226) | GI % (BT-549) | GI % (NCI-H23) | GI % (NCI/ADR-RES) | GI % (NCI-H322M) | GI % (SNB-75) | GI % (OVCAR-3) | GI % (MOLT-4) | GI % (NCI-H522) | GI % (SN12C) | GI % (SK-OV-3)

C=CCn1cc(C=NN=C2C(=O)Nc3c(F)cccc32)c2ccccc21 [Compound 10c]
10%: GI % (PC-3)
15%: GI % (EKVX)
54%: GI % (MDA-MB-468)
28%: GI % (HCT-116 [1])
34%: GI % (NCI-H522)
– (Only GI % higher than 10% are shown): GI % (OVCAR-5) | GI % (RXF 393) | GI % (SW-620) | GI % (MDA-MB-231/ATCC) | GI % (SK-MEL-28) | GI % (TK-10) | GI % (UACC-257) | GI % (SK-MEL-5) | GI % (A549/ATCC) | GI % (LOX IMVI) | GI % (SF-268) | GI % (MALME-3M) | GI % (HS 578T) | GI % (BT-549) | GI % (NCI-H23) | GI % (KM12) | GI % (NCI/ADR-RES) | GI % (NCI-H322M) | GI % (SNB-75) | GI % (SF-539) | GI % (HOP-92) | GI % (SN12C) | GI % (HL-60(TB)) | GI % (SK-OV-3) | GI % (NCI-H460)
35.4 ± 1.92 µM: IC50 (MDA-MB-231)
56%: GI % (NCI-H226)
43.8 ± 2.96 µM: IC50 (A-549)
31%: GI % (IGROV1)
29%: GI % (UO-31)
17%: GI % (CCRF-CEM)
7.3 ± 0.47 µM: IC50 (HCT-116 [2])
20%: GI % (K-562)
19%: GI % (MOLT-4)
22%: GI % (HCT-15)
11%: GI % (OVCAR-8) | GI % (ACHN)
13%: GI % (OVCAR-3)
